Measurements as given in the NIST ThermoML archive (doi:10.1021/acs.jced.8b00176).

Experiment: xn = mol fraction of the nth substance listed
Details: 100 kPa, Liquid; for viscosity: Falling or rolling sphere viscometry; for speed of sound: Frequency=3 MHz, Single path-length method; for mass density: Vibrating tube method

CCCCn1cc[n+](C)c1.O=S(=O)([O-])C(F)(F)F [1-butyl-3-methylimidazolium trifluoromethanesulfonate] + CC#N
Details | mass density [kg/m3] | speed of sound [m/s] | viscosity [mPa·s]
298.15 K, x1 = 0.0911 | 958.58 | 1306.2 | 0.94
298.15 K, x1 = 0.2023 | 1074.82 | 1330.8 | 1.74
298.15 K, x1 = 0.3029 | 1137.12 | 1347.2 | 4.03
298.15 K, x1 = 0.3998 | 1179 | 1359.4 | 6.63
298.15 K, x1 = 0.4994 | 1211.16 | 1368.6 | 11.09
298.15 K, x1 = 0.5953 | 1234.14 | 1375.6 | 19.01
298.15 K, x1 = 0.7029 | 1255.85 | 1382.5 | 29.57
298.15 K, x1 = 0.8009 | 1271.78 | 1386.6 | 40.36
298.15 K, x1 = 0.9012 | 1285.59 | 1389.8 | 56.57
298.15 K, x1 = 1 | 1297.46 | 1393.2 | 82.38
303.15 K, x1 = 0.0911 | 954.576 | 1289.2 | 0.88
303.15 K, x1 = 0.2023 | 1070.41 | 1315.6 | 1.61
303.15 K, x1 = 0.3029 | 1132.76 | 1333 | 3.64
303.15 K, x1 = 0.3998 | 1174.94 | 1346.1 | 5.9
303.15 K, x1 = 0.4994 | 1207.1 | 1355.7 | 9.65
303.15 K, x1 = 0.5953 | 1230.08 | 1363.1 | 16.22
303.15 K, x1 = 0.7029 | 1251.97 | 1370.6 | 24.73
303.15 K, x1 = 0.8009 | 1267.97 | 1374.9 | 33.14
303.15 K, x1 = 0.9012 | 1281.58 | 1378.4 | 45.89
303.15 K, x1 = 1 | 1293.46 | 1382.8 | 66.69
308.15 K, x1 = 0.0911 | 949.838 | 1272.1 | 0.83
308.15 K, x1 = 0.2023 | 1066.01 | 1300.6 | 1.58
308.15 K, x1 = 0.3029 | 1128.52 | 1318.8 | 3.3
308.15 K, x1 = 0.3998 | 1170.95 | 1332.8 | 5.26
308.15 K, x1 = 0.4994 | 1202.79 | 1343 | 8.46
308.15 K, x1 = 0.5953 | 1225.98 | 1350.7 | 13.86
308.15 K, x1 = 0.7029 | 1247.9 | 1358.8 | 20.9
308.15 K, x1 = 0.8009 | 1264.18 | 1363.4 | 27.82
308.15 K, x1 = 0.9012 | 1277.73 | 1367 | 37.7
308.15 K, x1 = 1 | 1289.47 | 1371.7 | 52.86
313.15 K, x1 = 0.0911 | 944.8 | 1255.1 | 0.79
313.15 K, x1 = 0.2023 | 1061.34 | 1285.5 | 1.48
313.15 K, x1 = 0.3029 | 1124.17 | 1304.8 | 3.01
313.15 K, x1 = 0.3998 | 1166.71 | 1319.6 | 4.73
313.15 K, x1 = 0.4994 | 1198.75 | 1330.3 | 7.48
313.15 K, x1 = 0.5953 | 1221.91 | 1338.4 | 12.06
313.15 K, x1 = 0.7029 | 1243.95 | 1347 | 17.91
313.15 K, x1 = 0.8009 | 1260.12 | 1352 | 23.51
313.15 K, x1 = 0.9012 | 1273.98 | 1355.8 | 31.45
313.15 K, x1 = 1 | 1285.47 | 1360.7 | 43.67
318.15 K, x1 = 0.0911 | 939.614 | 1238.2 | 0.75
318.15 K, x1 = 0.2023 | 1057.1 | 1270.6 | 1.4
318.15 K, x1 = 0.3029 | 1120.05 | 1290.8 | 2.75
318.15 K, x1 = 0.3998 | 1162.77 | 1306.4 | 4.26
318.15 K, x1 = 0.4994 | 1194.47 | 1317.7 | 6.65
318.15 K, x1 = 0.5953 | 1217.75 | 1326.2 | 10.56
318.15 K, x1 = 0.7029 | 1240.12 | 1335.4 | 15.52
318.15 K, x1 = 0.8009 | 1256.17 | 1340.7 | 20.16
318.15 K, x1 = 0.9012 | 1270.02 | 1344.7 | 26.58
318.15 K, x1 = 1 | 1281.47 | 1349.9 | 36.29
323.15 K, x1 = 0.0911 | 934.671 | 1221.3 | 0.71
323.15 K, x1 = 0.2023 | 1052.93 | 1255.8 | 1.32
323.15 K, x1 = 0.3029 | 1115.71 | 1276.9 | 2.54
323.15 K, x1 = 0.3998 | 1158.5 | 1293.4 | 3.88
323.15 K, x1 = 0.4994 | 1190.69 | 1305.2 | 5.95
323.15 K, x1 = 0.5953 | 1213.78 | 1314 | 9.33
323.15 K, x1 = 0.7029 | 1236.14 | 1323.8 | 13.54
323.15 K, x1 = 0.8009 | 1252.29 | 1329.5 | 17.4
323.15 K, x1 = 0.9012 | 1266.17 | 1333.7 | 22.66
323.15 K, x1 = 1 | 1277.48 | 1338.8 | 30.57

CCCCn1cc[n+](C)c1.O=S(=O)([O-])C(F)(F)F [1-butyl-3-methylimidazolium trifluoromethanesulfonate] + CN(C)C=O
Details | mass density [kg/m3] | speed of sound [m/s] | viscosity [mPa·s]
298.15 K, x1 = 0.1087 | 1042.02 | 1449.2 | 1.8
298.15 K, x1 = 0.203 | 1099.89 | 1437.7 | 3.67
298.15 K, x1 = 0.2978 | 1142.86 | 1425.7 | 5.22
298.15 K, x1 = 0.409 | 1181.65 | 1415 | 8.68
298.15 K, x1 = 0.4969 | 1206.07 | 1409.2 | 13.24
298.15 K, x1 = 0.603 | 1230.69 | 1403 | 20.91
298.15 K, x1 = 0.699 | 1249.54 | 1399.1 | 32.59
298.15 K, x1 = 0.809 | 1268.59 | 1396.7 | 52.15
298.15 K, x1 = 0.8928 | 1281.63 | 1395 | 68.08
298.15 K, x1 = 1 | 1297.46 | 1393.2 | 82.38
303.15 K, x1 = 0.1087 | 1037.25 | 1432.1 | 1.67
303.15 K, x1 = 0.203 | 1095.22 | 1421.9 | 3.23
303.15 K, x1 = 0.2978 | 1138.3 | 1410.9 | 4.67
303.15 K, x1 = 0.409 | 1177.22 | 1401.2 | 7.62
303.15 K, x1 = 0.4969 | 1201.73 | 1396 | 11.4
303.15 K, x1 = 0.603 | 1226.44 | 1390.5 | 17.79
303.15 K, x1 = 0.699 | 1245.37 | 1387 | 27.14
303.15 K, x1 = 0.809 | 1264.5 | 1384.8 | 42.41
303.15 K, x1 = 0.8928 | 1277.59 | 1383.5 | 54.9
303.15 K, x1 = 1 | 1293.46 | 1382.8 | 66.69
308.15 K, x1 = 0.1087 | 1032.47 | 1415.2 | 1.55
308.15 K, x1 = 0.203 | 1090.53 | 1406 | 2.93
308.15 K, x1 = 0.2978 | 1133.72 | 1395.9 | 4.2
308.15 K, x1 = 0.409 | 1172.78 | 1387.2 | 6.73
308.15 K, x1 = 0.4969 | 1197.38 | 1382.9 | 9.92
308.15 K, x1 = 0.603 | 1222.2 | 1378.1 | 15.23
308.15 K, x1 = 0.699 | 1241.2 | 1375 | 22.89
308.15 K, x1 = 0.809 | 1260.4 | 1373.3 | 35.16
308.15 K, x1 = 0.8928 | 1273.54 | 1372.1 | 44.83
308.15 K, x1 = 1 | 1289.47 | 1371.7 | 52.86
313.15 K, x1 = 0.1087 | 1027.69 | 1398.1 | 1.44
313.15 K, x1 = 0.203 | 1085.84 | 1390.4 | 2.64
313.15 K, x1 = 0.2978 | 1129.15 | 1381.4 | 3.81
313.15 K, x1 = 0.409 | 1168.33 | 1373.6 | 6.01
313.15 K, x1 = 0.4969 | 1193.03 | 1369.7 | 8.71
313.15 K, x1 = 0.603 | 1217.94 | 1365.6 | 13.22
313.15 K, x1 = 0.699 | 1237.03 | 1363 | 19.53
313.15 K, x1 = 0.809 | 1256.31 | 1361.7 | 29.38
313.15 K, x1 = 0.8928 | 1269.5 | 1360.9 | 37.11
313.15 K, x1 = 1 | 1285.47 | 1360.7 | 43.67
318.15 K, x1 = 0.1087 | 1022.88 | 1381.2 | 1.34
318.15 K, x1 = 0.203 | 1081.13 | 1375 | 2.4
318.15 K, x1 = 0.2978 | 1124.56 | 1367 | 3.47
318.15 K, x1 = 0.409 | 1163.87 | 1360.1 | 5.41
318.15 K, x1 = 0.4969 | 1188.67 | 1356.8 | 7.74
318.15 K, x1 = 0.603 | 1213.69 | 1353.3 | 11.6
318.15 K, x1 = 0.699 | 1232.85 | 1351.2 | 16.84
318.15 K, x1 = 0.809 | 1252.21 | 1350.3 | 24.86
318.15 K, x1 = 0.8928 | 1265.45 | 1349.7 | 31.09
318.15 K, x1 = 1 | 1281.47 | 1349.9 | 36.29
323.15 K, x1 = 0.1087 | 1018.08 | 1364.5 | 1.26
323.15 K, x1 = 0.203 | 1076.42 | 1359.6 | 2.2
323.15 K, x1 = 0.2978 | 1119.97 | 1352.6 | 3.17
323.15 K, x1 = 0.409 | 1159.41 | 1346.7 | 4.88
323.15 K, x1 = 0.4969 | 1184.31 | 1344 | 6.89
323.15 K, x1 = 0.603 | 1209.43 | 1341.1 | 10.21
323.15 K, x1 = 0.699 | 1228.67 | 1339.5 | 14.64
323.15 K, x1 = 0.809 | 1248.11 | 1339.1 | 21.29
323.15 K, x1 = 0.8928 | 1261.4 | 1338.7 | 26.39
323.15 K, x1 = 1 | 1277.48 | 1338.8 | 30.57
